Results taken from patent US5786377A, “Pyrrolo[3,2-E]indol derivatives, process for the preparation thereof and applications” (Universidad de Santiago de Compostela, priority 1993, dated 1998).
Values after ≈ are worked out from the molar mass of the structure shown.

Legend:
P388 leukemic tumor = test: P388 antitumoral model in vivo, survival of leukemic mice (%C/T); parameters: species or system mouse
Description: Description of the P388 Antitumoral Model
Normally, 1×10^6 cells in ascitic fluid was implanted. i.p. in CD2 F1 mice. Treatment with the agent tested i.p. began one day after the tumor had been implanted and it is continued daily up to a total of 5 injections for synthetic products and of 9 injections for raw natural products. The results are expressed as percentage of the control survival time.
CDFl mice weighing 18-22 gr (+/-3 gr) were implanted on day 0 of the test period 0.1 ml. of a dilution of 1.0×10^7 tumor cells coming from DBA/2N mice used for the propagation of the tumor.
On day 1 of the test period the animals were grouped at randam in groups of six animals. Each group is weighed and the average weight is written down. Each compound to be tested in duluted in 4 lvels of dosis for each multidose test as of the determiantion of the highest non-toxic dose (v.g. 400 mg/kg; 100 mg/kg; 10 mg/kg.)
Administration of the test compounds is started on day 1 using volumns of 1/2 drug injected i.p. Injections are given on days 1 to 9 of the test period, unless it is indicated to the contrary. The animals are weighed on day 5, which is the one which in this system is considered the day of toxicity. Toxicity in this test system is defined as: […]
A. 34% deaths up to day 5--acute toxicity
B. C/T <85% --chronic toxicity
C. A negative average of the weight change of the animals >4 g up to day 5--chronic toxicity
The data obtained upon testing the compounds in vivo in comparison with the P388 leukemic tumor model in mice are shown in the following table:
Where %C/T means average survival of the tested group/average survival of […]

cancer = test: anticarcinogenic activity in vivo and toxicity, general statement on the biological activity studies; conditions: in words; for toxicity: in vivo
Source text: This makes them especially ideal for used as agents for the therapeutic treatment of cancer in its diverse manifestations and, especially, in cases of leukemia.

P388 = conditions: cited from earlier work
HT-29 = test: in vitro test, HT-29; assay type: cell-based; conditions: Homo sapiens
Source text: (§1) On the other hand, the results of the tests in vitro carried out on compounds (IIIa) and (IIIb) were the following: […]

MEL-28 = test: in vitro test, MEL-28; assay type: cell-based; conditions: Homo sapiens, SK-MEL-28
Source text: as §1

P-388 = test: in vitro test, P-388; assay type: cell-based; conditions: Mus musculus, P388
Source text: as §1

A-549 = test: in vitro test, A-549; assay type: cell-based; conditions: Homo sapiens, A549
Source text: as §1

[1] = cited from earlier work
[2] = in words; cited from earlier work
[3] = compared with CC-1065; cited from earlier work

COC(=O)c1cn(C)c2c(O)cc3c(c12)C(CCl)CN3C(=O)c1cc2cc(OC)c(OC)c(OC)c2[nH]1 (stereo not drawn) [Compound (V), methyl 6-(5,6,7-trimethoxy-1H-indol-2-carbonyl)-8-chloromethyl-4-hydroxy-3-methyl-3,6,7,8-tetra-hydropyrrololo[3,2-e]indol-1-carboxylate]
%C/T (average survival of the tested group/average survival of the controls and untreated ones) (P388 leukemic tumor; 0.050 mg/kg i.p.): 133.9%
%C/T activity class (significance mark) (P388 leukemic tumor; 0.050 mg/kg i.p.): ** (Significant activity (strong): C/T > = 175%)
toxicity (cancer): very low toxicity
anticarcinogenic activity in vivo (cancer): high anticarcinogenic activity in vivo

COC(=O)c1cn(C)c2c(O)cc3c(c12)C(CCl)CN3C(=O)c1cc2cc(NC(=O)c3cc4ccccc4o3)ccc2[nH]1 (stereo not drawn) [Compound (III), methyl 6-{5-[(benzofuran-2-ylcarbonyl)-amino]1H-indol-2-carbonyl}-8-chloromethyl-4-hydroxy-3-methyl-3,6,7,8,tetrahydropyrrolo[3,2-e]indol-1-carboxylate]
%C/T (average survival of the tested group/average survival of the controls and untreated ones) (P388 leukemic tumor; 0.500 mg/kg i.p.): > 391.3%
toxicity (cancer): very low toxicity
anticarcinogenic activity in vivo (cancer): high anticarcinogenic activity in vivo

COC(=O)c1cn(C)c2c1C13CC1CN(C(=O)c1cc4cc(NC(=O)c5cc6ccccc6o5)ccc4[nH]1)C3=CC2=O (stereo not drawn) [(IV), methyl 2-[5-[(benzofuran-2-ylcarbonyl)amino]-1H-indol-2-carbonyl]-5-methyl-4-oxo,1,2,4,5,8,8,a-hexahydrocyclopropa[c]pyrrolo[3,2-e]indol-7-carboxylate]
%C/T (average survival of the tested group/average survival of the controls and untreated ones) (P388 leukemic tumor; 0.300 mg/kg i.p.): 251.1%
%C/T activity class (significance mark) (P388 leukemic tumor; 0.300 mg/kg i.p.): ** (Significant activity (strong): C/T > = 175%)
toxicity (cancer): very low toxicity
anticarcinogenic activity in vivo (cancer): high anticarcinogenic activity in vivo

O=C(Nc1ccc2[nH]c(C(=O)N3CC4CC45C3=CC(=O)c3ccccc35)cc2c1)c1cc2ccccc2[nH]1 (stereo not drawn) [CBI-Ind2]
results in the P388 model in vivo (P388): very good results in the P388 model in vivo

COC(=O)c1cn(C)c2c(OC(=O)c3ccc([N+](=O)[O-])cc3)cc3c(c12)C(CCl)CN3C(=O)c1cc2cc(NC(=O)c3cc4ccccc4o3)ccc2[nH]1 (stereo not drawn) [IIIb]
IC50 (HT-29): 0.5 ng/mL (≈ 0.67 nM)
IC50 (MEL-28): 0.5 ng/mL (≈ 0.67 nM)
IC50 (P-388): 0.02 ng/mL (≈ 0.0268 nM)
IC50 (A-549): 0.1 ng/mL (≈ 0.134 nM)

COc1c(O)c2c(c3cc(C(=O)N4CCc5c4c(O)c(OC)c4[nH]c(C(=O)N6CC7CC78C6=CC(=O)c6[nH]cc(C)c68)cc54)[nH]c13)CCN2C(N)=O (stereo not drawn) [CC-1065]
toxicity (delayed deaths) ([1]; mice, therapeutic doses): high toxicity, producing delayed deaths in mice at therapeutic doses
cytotoxic strength [2]: extremely strong cytoxine

Cc1c[nH]c2c1C13CC1CN(C(=O)c1cc4cc(NC(=O)c5cc6ccccc6o5)ccc4[nH]1)C3=CC2=O (stereo not drawn) [Adocelesine]
delayed lethality ([1]; mouse, in vivo): without provoking delayed lethality
tumoral effectiveness versus the natural product [3]: greatly exceeds the natural product in tumoral effectiveness

COC(=O)c1cn(C)c2c1C13CC1CN(C(=O)c1cc4cc(OC)c(OC)c(OC)c4[nH]1)C3=CC2=O (stereo not drawn) [(VI), methyl 2-(5,6,7-trimethoxy-1H-indolz2-carbonyl)-5-methyl-4-oxo-1,2,4,5,8a-hexahydrocyclopropa[c]pyrrolo[3,2-e]indol-7-carboxylate]
%C/T (average survival of the tested group/average survival of the controls and untreated ones) (P388 leukemic tumor; 0.500 mg/kg i.p.): 210.9%
%C/T activity class (significance mark) (P388 leukemic tumor; 0.500 mg/kg i.p.): ** (Significant activity (strong): C/T > = 175%)
toxicity (cancer): very low toxicity
anticarcinogenic activity in vivo (cancer): high anticarcinogenic activity in vivo
